# According to the supplement of paper PMC10307832:
# Tests used:
# Assay in all cases: relative viability (nuclei count vs DMSO), 5 days (fraction); higher = more cells survive
# COR-L23 = test system: COR-L23
# In short: (§1)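 After 5 days of treatment, lung cancer cells in 1536-well plates were fixed and stained in a single step (final 0.05% Triton X-100, 1% formaldehyde, 1 ug/ml Hoechst) and their nuclei counted on 4× images. Treatment had been applied by pin tool the day after seeding as one drug alone or as a fixed anchor-drug dose with five library-drug doses (not always all listed) in √10 steps. Relative viability is the nuclei count of treated wells divided by that of vehicle wells, and values are medians of duplicate plates.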
# ChaGo-K-1 = test system: ChaGo-K-1
# In short: as §1
# EMC-BAC-2 = test system: EMC-BAC-2
# In short: as §1
# EPLC-272H = test system: EPLC-272H
# In short: as §1
# H3255 = test system: H3255
# In short: as §1
# HCC-44 = test system: HCC-44
# In short: as §1
# HCC-827 = test system: HCC-827
# In short: as §1
# LCLC-103H = test system: LCLC-103H
# In short: as §1
# LU99A = test system: LU99A
# In short: as §1
# NCI-H1395 = test system: NCI-H1395
# In short: as §1
# NCI-H1651 = test system: NCI-H1651
# In short: as §1
# NCI-H1793 = test system: NCI-H1793
# In short: as §1
# NCI-H1944 = test system: NCI-H1944
# In short: as §1
# NCI-H2023 = test system: NCI-H2023
# In short: as §1
# NCI-H2085 = test system: NCI-H2085
# In short: as §1
# NCI-H2087 = test system: NCI-H2087
# In short: as §1
# NCI-H2405 = test system: NCI-H2405
# In short: as §1
# NCI-H520 = test system: NCI-H520
# In short: as §1
# NCI-H650 = test system: NCI-H650
# In short: as §1
# NCI-H838 = test system: NCI-H838
# In short: as §1
# SK-MES-1 = test system: SK-MES-1
# In short: as §1
compound,measurement,setting,value
CCN(CC)CCCCNc1ncc2cc(-c3cc(OC)cc(OC)c3)c(NC(=O)NC(C)(C)C)nc2n1 + CC(=O)Nc1cccc(-n2c(=O)n(C3CC3)c(=O)c3c(Nc4ccc(I)cc4F)n(C)c(=O)c(C)c32)c1 [Trametinib] (partner 0.02 µM),relative viability,COR-L23; first compound 0.01 µM,0.579
same,relative viability,COR-L23; first compound 0.03162 µM,0.593
same,relative viability,COR-L23; first compound 0.1 µM,0.667
same,relative viability,COR-L23; first compound 0.3162 µM,0.692
same,relative viability,COR-L23; first compound 1 µM,0.61
same,relative viability,ChaGo-K-1; first compound 0.01 µM,0.906
same,relative viability,ChaGo-K-1; first compound 0.03162 µM,0.902
same,relative viability,ChaGo-K-1; first compound 0.1 µM,0.951
same,relative viability,ChaGo-K-1; first compound 0.3162 µM,0.962
same,relative viability,ChaGo-K-1; first compound 1 µM,0.885
same,relative viability,EMC-BAC-2; first compound 0.03162 µM,0.986
same,relative viability,EMC-BAC-2; first compound 0.1 µM,0.917
same,relative viability,EMC-BAC-2; first compound 0.3162 µM,0.847
same,relative viability,EMC-BAC-2; first compound 1 µM,0.83
same,relative viability,EPLC-272H; first compound 0.01 µM,0.263
same,relative viability,EPLC-272H; first compound 0.1 µM,0.277
same,relative viability,EPLC-272H; first compound 0.3162 µM,0.281
same,relative viability,EPLC-272H; first compound 1 µM,0.215
same,relative viability,H3255; first compound 0.01 µM,0.627
same,relative viability,H3255; first compound 0.1 µM,0.596
same,relative viability,H3255; first compound 0.3162 µM,0.711
same,relative viability,H3255; first compound 1 µM,0.566
same,relative viability,HCC-44; first compound 0.01 µM,0.987
same,relative viability,HCC-44; first compound 0.03162 µM,1.08
same,relative viability,HCC-44; first compound 0.1 µM,1.1
same,relative viability,HCC-44; first compound 0.3162 µM,1.11
same,relative viability,HCC-44; first compound 1 µM,0.931
same,relative viability,HCC-827; first compound 0.01 µM,0.539
same,relative viability,HCC-827; first compound 0.03162 µM,0.59
same,relative viability,HCC-827; first compound 0.1 µM,0.585
same,relative viability,HCC-827; first compound 0.3162 µM,0.587
same,relative viability,HCC-827; first compound 1 µM,0.516
same,relative viability,LCLC-103H; first compound 0.01 µM,0.691
same,relative viability,LCLC-103H; first compound 0.03162 µM,0.719
same,relative viability,LCLC-103H; first compound 0.1 µM,0.75
same,relative viability,LCLC-103H; first compound 0.3162 µM,0.68
same,relative viability,LCLC-103H; first compound 1 µM,0.579
same,relative viability,LU99A; first compound 0.01 µM,0.593
same,relative viability,LU99A; first compound 0.03162 µM,0.537
same,relative viability,LU99A; first compound 0.1 µM,0.527
same,relative viability,LU99A; first compound 0.3162 µM,0.6
same,relative viability,LU99A; first compound 1 µM,0.505
same,relative viability,NCI-H1395; first compound 0.01 µM,1.05
same,relative viability,NCI-H1395; first compound 0.03162 µM,0.918
same,relative viability,NCI-H1395; first compound 0.1 µM,0.907
same,relative viability,NCI-H1395; first compound 0.3162 µM,0.63
same,relative viability,NCI-H1395; first compound 1 µM,0.568
same,relative viability,NCI-H1651; first compound 0.01 µM,0.863
same,relative viability,NCI-H1651; first compound 0.03162 µM,0.802
same,relative viability,NCI-H1651; first compound 0.1 µM,0.842
same,relative viability,NCI-H1651; first compound 0.3162 µM,0.836
same,relative viability,NCI-H1651; first compound 1 µM,0.806
same,relative viability,NCI-H1793; first compound 0.01 µM,0.456
same,relative viability,NCI-H1793; first compound 0.03162 µM,0.405
same,relative viability,NCI-H1793; first compound 0.1 µM,0.422
same,relative viability,NCI-H1793; first compound 0.3162 µM,0.337
same,relative viability,NCI-H1793; first compound 1 µM,0.238
same,relative viability,NCI-H1944; first compound 0.01 µM,0.428
same,relative viability,NCI-H1944; first compound 0.03162 µM,0.398
same,relative viability,NCI-H1944; first compound 0.1 µM,0.403
same,relative viability,NCI-H1944; first compound 0.3162 µM,0.416
same,relative viability,NCI-H1944; first compound 1 µM,0.401
same,relative viability,NCI-H2023; first compound 0.01 µM,0.662
same,relative viability,NCI-H2023; first compound 0.03162 µM,0.551
same,relative viability,NCI-H2023; first compound 0.1 µM,0.624
same,relative viability,NCI-H2023; first compound 0.3162 µM,0.629
same,relative viability,NCI-H2023; first compound 1 µM,0.447
same,relative viability,NCI-H2085; first compound 0.01 µM,0.521
same,relative viability,NCI-H2085; first compound 0.03162 µM,0.682
same,relative viability,NCI-H2085; first compound 0.1 µM,0.496
same,relative viability,NCI-H2085; first compound 0.3162 µM,0.469
same,relative viability,NCI-H2085; first compound 1 µM,0.547
same,relative viability,NCI-H2087; first compound 0.01 µM,0.202
same,relative viability,NCI-H2087; first compound 0.03162 µM,0.171
same,relative viability,NCI-H2087; first compound 0.1 µM,0.217
same,relative viability,NCI-H2087; first compound 0.3162 µM,0.189
same,relative viability,NCI-H2087; first compound 1 µM,0.209
same,relative viability,NCI-H2405; first compound 0.01 µM,0.574
same,relative viability,NCI-H2405; first compound 0.03162 µM,0.669
same,relative viability,NCI-H2405; first compound 0.1 µM,0.796
same,relative viability,NCI-H2405; first compound 0.3162 µM,0.655
same,relative viability,NCI-H2405; first compound 1 µM,0.5
same,relative viability,NCI-H520; first compound 0.01 µM,0.684
same,relative viability,NCI-H520; first compound 0.03162 µM,0.538
same,relative viability,NCI-H520; first compound 0.1 µM,0.722
same,relative viability,NCI-H520; first compound 0.3162 µM,0.287
same,relative viability,NCI-H520; first compound 1 µM,0.216
same,relative viability,NCI-H650; first compound 0.01 µM,1.03
same,relative viability,NCI-H650; first compound 0.03162 µM,1.01
same,relative viability,NCI-H650; first compound 0.1 µM,0.962
same,relative viability,NCI-H650; first compound 0.3162 µM,1.07
same,relative viability,NCI-H650; first compound 1 µM,0.925
same,relative viability,NCI-H838; first compound 0.01 µM,0.469
same,relative viability,NCI-H838; first compound 0.03162 µM,0.515
same,relative viability,NCI-H838; first compound 0.1 µM,0.514
same,relative viability,NCI-H838; first compound 0.3162 µM,0.435
same,relative viability,NCI-H838; first compound 1 µM,0.443
same,relative viability,SK-MES-1; first compound 0.01 µM,0.601
same,relative viability,SK-MES-1; first compound 0.03162 µM,0.562
same,relative viability,SK-MES-1; first compound 0.1 µM,0.525
same,relative viability,SK-MES-1; first compound 0.3162 µM,0.584
same,relative viability,SK-MES-1; first compound 1 µM,0.512
